Laboratory results reported in patent US11160809B2, “NK1-antagonist combination and method for treating synucleinopathies” (priority 2017, dated 2021).
Like-named read-outs stand apart in the source and are kept apart here.

Tests used:
[1] = doses approved for motor symptoms of PD; 535 PD patients; cited from earlier work
[2] = target: alpha-synuclein in human neuroblastoma SH-SY5Y cells (Homo sapiens, UniProt P37840); conditions: cited from earlier work
[3] = target: human wild-type alpha-synuclein (Homo sapiens, UniProt P37840); conditions: in vitro; by H2O2 plus cytochrome c; cited from earlier work
[4] = target: synuclein (Homo sapiens, UniProt P37840); conditions: in vitro; cited from earlier work
[5] = for MTD-1 (Pramipexole alone): Period 1
Method: The starting dose of pramipexole was 0.5 mg and the dose was increased daily by 0.5 mg increments.
When a subject reached FID-1 on pramipexole alone, the subject was washed out for at least 5 days, and then entered Period 2 of the study during which the subject received single daily oral doses of pramipexole starting at 0.5 mg and titrated upward by 0.5 mg increments, together with oral aprepitant (80 mg) until subjects again reached an intolerable dose defined as above. The FID on oral pramipexole plus oral aprepitant was referred to as FID-2.
If a subject reached FID-2 during Period 2 at the same or lower dose than FID-1, and providing the investigator judged there were no safety issues and the subject was consenting, the subject received the same dose of pramipexole as the FID-2 dose together with a higher dose of oral aprepitant (120 mg) on the next day and the protocol specified that said subject should continue with the remainder of the dose titration with the higher dose of oral aprepitant (120 mg) until they reach the intolerable dose (FID2+). All other provisions of the protocol remained unchanged. Assessments were the same as those planned for the dose escalation day.
In addition, a laboratory panel was taken at screening and at the end of the study.

[6] = 5 mg/day of pramipexole, cited from earlier work
[7] = tested on: dopaminergic neurons in a mouse PD model; conditions: cited from earlier work

SMILES: CCCN[C@H]1CCc2nc(N)sc2C1 [Pramipexole, (S)-6-propylamino-4,5,6,7-tetrahydro-1,3-benzothiazole-2-amine]
- Neuroprotective (disease modifying) activity [1]: failed to evidence neuroprotective (i.e., disease modifying) activity
- Aggregation of alpha-synuclein [2]: inhibit the aggregation of alpha-synuclein
- Oligomerization of human wild-type alpha-synuclein [3]: decreases the in vitro oligomerization
- Synuclein oligomer formation [4]: diminishes synuclein oligomer formation
- MTD-1 (Pramipexole alone) ([5]; Subject 1001): 2.0 mg
- MTD-1 (Pramipexole alone) ([5]; Subject 1006, NA, not tolerated at 0.5 mg): NA (not tolerated
- MTD-1 (Pramipexole alone) ([5]; Subject 1007): 4.0 mg
- MTD-1 (Pramipexole alone) ([5]; Subject 1008): 1.0 mg
- Reaching of FID-1 ([5]; human, in vivo): All subjects reached FID-1
- Dose limiting toxicity ([5]; in vivo): gastro-intestinal adverse events
- Nausea [6]: 76 % of patients
- Vomiting [6]: 39 % of patients
- Patients not able to complete the study ([6]; presumably because of intolerable GI adverse events): 36 % of patients
- Toxic effects of rotenone on dopaminergic neurons ([7]; mouse PD model): inhibits the toxic effects of rotenone
- Immunoreactivity for alpha-synuclein ([7]; rotenone mouse PD model): reducing immunoreactivity for alpha-synuclein
